The results in this text go back to patent US10851108B2, “Substituted bicyclic heterocyclic compounds” (BRISTOL-MYERS SQUIBB COMPANY, priority 2016, dated 2020).

Each structure is given as a SMILES string.

Sequence of hROMK (human Kir1.1) (P48048 whole entry): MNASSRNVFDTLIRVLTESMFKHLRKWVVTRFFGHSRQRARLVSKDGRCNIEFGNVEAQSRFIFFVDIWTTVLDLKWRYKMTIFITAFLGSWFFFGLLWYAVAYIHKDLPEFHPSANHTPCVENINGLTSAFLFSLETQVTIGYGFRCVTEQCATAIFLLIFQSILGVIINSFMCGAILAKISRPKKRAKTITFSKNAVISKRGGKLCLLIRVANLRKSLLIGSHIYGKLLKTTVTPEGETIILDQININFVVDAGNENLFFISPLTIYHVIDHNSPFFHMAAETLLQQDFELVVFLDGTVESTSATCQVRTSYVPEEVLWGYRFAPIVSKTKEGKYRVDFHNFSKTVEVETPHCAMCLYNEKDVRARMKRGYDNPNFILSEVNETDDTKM

The target in this assay is hROMK (human Kir1.1) (Homo sapiens (Human), UniProt P48048). Nature of the assay: Thallium Flux Assay. In kind it is cell-based. As to conditions: CHO T-Rex hROMK stable cell line, 10-point concentration response; read-out: hROMK Th+ Flux IC50. Here is the method:
Solutions and reagents: Thallium flux assay was performed using FluxOR kit (F10017, Life Technologies). Loading buffer, assay buffer and stimulus buffer were prepared using kit components. HBSS (Hank's balanced salt solution, Cat #14025-092) was purchased separately from Life Technologies.
To prepare 10 ml of loading buffer: 10 μl of FluxOR dye (reconstituted in DMSO) was first added to 100 μl of powerload concentrate and this mix along with 100 μl of Probenicid (100×) was then added to 9.79 ml of HBSS. Assay buffer (10 ml) was prepared by addition of 2 ml of FluxOR chloride free buffer (5×), 100 μl of Probenicid (100×), and 0.2 ml of Ouabain (13.77 mM) to 7.7 ml of deionized water. Stimulus buffer was composed of 15 mM Tl2SO4, 0.75 mM K2SO4 in FluxOR chloride free buffer (diluted to 1× using deionized water). The final concentration of Tl2SO4 and K2SO4 in the assay plate was 3 mM and 0.15 mM, respectively.
Plating and induction of cells: The CHO T-Rex hROMK (human Kir1.1) stable cell line was maintained in Ham's F12 media supplemented with 10% FBS, 1% Penicillin-Streptomycin, 500 μg/ml Zeocin and 10 μg/ml Blasticidin at 37° C. in a 5% CO2 incubator. One day before the experiment, the cells were dissociated by incubation with Versene solution (15040-066, Life Technologies) for 10 minutes at 37° C. followed by addition of growth media. The cell suspension was centrifuged at 1200 rpm for 5 min. After discarding the supernatant, the cells were resuspended in fresh growth media and cell concentration was determined using a hemocytometer. Next, 0.5 μg/ml of Doxycycline was added to the cell suspension to induce hROMK channel expression and 50 μl (10,000 cells/well) of cell suspension was added to each well of a poly-D lysine coated 384 well black, optically clear bottom plate (6007718, Perkin Elmer). The assay plate was kept at 37° C. in a 5% CO2 incubator.
Assay protocol: On the day of experiment, media was removed and loading buffer was added (30 μl/well) to the assay plate. The cells were incubated in the loading buffer for 30 minutes at 37° C. The loading buffer was then replaced by assay buffer (30 μl/well) followed by addition of test compounds or controls. The cells were incubated with compounds for 30 minutes and the plate was then mounted on FlexStation (Molecular Devices) for fluorescence read out with excitation and emission wavelengths at 488 and 525 nm, respectively. Each well was read for 90 sec at 2 sec interval and the stimulus buffer was added after 20 seconds of baseline recording. The final DMSO concentration was either 0.5 or 1% in the assay plate. […] controls were defined by addition of DMSO or 3 μM of a standard ROMK inhibitor, respectively, to the wells instead of a test compound.
A 10-point concentration response curve was used to estimate the IC50 value of test compounds.
The data in Table 3 is reported with two significant figures.
On to `Cc1c(C(O)CN2CCc3nc(-n4ncc5c(C#N)ccnc54)ncc3C2)ccc2c1COC2=O` (single isomer, unassigned) [Example 35-II, 1-(6-(2-hydroxy-2-(4-methyl-1-oxo-1,3-dihydroisobenzofuran-5-yl)ethyl)-5,6,7,8-tetrahydropyrido[4,3-d]pyrimidin-2-yl)-1H-pyrazolo[3,4-b]pyridine-4-carbonitrile], for which the IC50 was determined as 4.9 µM.

In the case of `Cc1c(C(CO)N2CCc3nc(Nc4ccc(C#N)c(F)c4)ncc3C2)ccc2c1COC2=O` (single isomer, unassigned) [Example 29-I, 2-fluoro-4-((6-(2-hydroxy-1-(4-methyl-1-oxo-1,3-dihydroisobenzofuran-5-yl)ethyl)-5,6,7,8-tetrahydropyrido [4,3-d]pyrimidin-2-yl)amino)benzonitrile], the IC50 was determined as 3 µM.

Take `Cc1c(C(O)CN2CCc3nc(-n4ccc5c(C#N)cccc54)ncc3C2)ccc2c1COC2=O` (single isomer, unassigned) [Example 1-II, 1-(6-(2-hydroxy-2-(4-methyl-1-oxo-1,3-dihydroisobenzofuran-5-yl)ethyl)-5,6,7,8-tetrahydropyrido[4,3-d]pyrimidin-2-yl)-1H-indole-4-carbonitrile]: the IC50 was 0.46 µM.

As to `N#Cc1ccc(Nc2ccc3c(n2)CCN(CCc2ccc4c(c2)COC4=O)C3)cc1F` [Example 7, 2-fluoro-4-((6-(2-(1-oxo-1,3-dihydroisobenzofuran-5-yl)ethyl)-5,6,7,8-tetrahydro-1,6-naphthyridin-2-yl)amino)benzonitrile], the IC50 was found to be 0.2 µM.

For the compound `Cn1c(=O)oc2ccc(C(O)CN3CCc4nc(-n5ncc6c(C#N)cccc65)ncc4C3)cc21` (single isomer, unassigned) [Example 3-I, 1-(6-(2-hydroxy-2-(3-methyl-2-oxo-2,3-dihydrobenzo[d]oxazol-5-yl)ethyl)-5,6,7,8-tetrahydropyrido[4,3-d]pyrimidin-2-yl)-1H-indazole-4-carbonitrile], the IC50 was 0.74 µM.

Turning to `Cc1cc(Nc2ncc3c(n2)CCN(Cc2ccc4c(c2C)COC4=O)C3)ncc1C#N` [Example 31, 4-methyl-6-((6-((4-methyl-1-oxo-1,3-dihydroisobenzofuran-5-yl)methyl)-5,6,7,8-tetrahydropyrido[4,3-d]pyrimidin-2-yl)amino) nicotinonitrile], the IC50 turned out to be 1.5 µM.

Regarding `Cc1c(C(O)CN2CCc3nc(Nc4cncc(C#N)c4)ncc3C2)ccc2c1COC2=O` (single isomer, unassigned) [Example 61-I, 5-((6-(2-hydroxy-2-(4-methyl-1-oxo-1,3-dihydroisobenzofuran-5-yl)ethyl)-5,6,7,8-tetrahydropyrido[4,3-d]pyrimidin-2-yl)amino)nicotinonitrile], the IC50 turned out to be 0.568 µM.

For `Cc1c(CN2CCc3cc(Nc4cccc(F)c4C#N)ccc3C2)ccc2c1COC2=O` [Example 39, 2-fluoro-6-((2-((4-methyl-1-oxo-1,3-dihydroisobenzofuran-5-yl)methyl)-1,2,3,4-tetrahydroisoquinolin-6-yl)amino)benzonitrile], the IC50 came out at 0.55 µM.

With `Cc1c(CN2CCc3nc(-n4ccc5c(C#N)cccc54)ncc3C2)ccc2c1COC2=O` [Example 20, 1-(6-((4-methyl-1-oxo-1,3-dihydro-isobenzofuran-5-yl)methyl)-5,6,7,8-tetrahydropyrido[4,3-d]pyrimidin-2-yl)-1H-indole-4-carbonitrile], the IC50 was 1.5 µM.

As to `Cc1c(C(O)CN2CCc3nc(-n4ccc5cc(C#N)cnc54)ncc3C2)ccc2c1COC2=O` (single isomer, unassigned) [Example 44-I, 1-(6-(2-hydroxy-2-(4-methyl-1-oxo-1,3-dihydroisobenzofuran-5-yl)ethyl)-5,6,7,8-tetrahydropyrido[4,3-d]pyrimidin-2-yl)-1H-pyrrolo[2,3-b]pyridine-5-carbonitrile], the IC50 stood at 2.1 µM.

The IC50 is the concentration needed to halve the response being measured.
